Read-outs that look alike come from different tables or passages of the source.
Biological target: T1, platelet activating factor (PAF) receptor (Oryctolagus cuniculus, UniProt G1TEI7)
T1 construct: gene PTAFR; native receptor on washed rabbit platelets
Test: 3H-PAF radioligand displacement on washed rabbit platelets
Format: cell-based

T1 sequence (G1TEI7 1-342): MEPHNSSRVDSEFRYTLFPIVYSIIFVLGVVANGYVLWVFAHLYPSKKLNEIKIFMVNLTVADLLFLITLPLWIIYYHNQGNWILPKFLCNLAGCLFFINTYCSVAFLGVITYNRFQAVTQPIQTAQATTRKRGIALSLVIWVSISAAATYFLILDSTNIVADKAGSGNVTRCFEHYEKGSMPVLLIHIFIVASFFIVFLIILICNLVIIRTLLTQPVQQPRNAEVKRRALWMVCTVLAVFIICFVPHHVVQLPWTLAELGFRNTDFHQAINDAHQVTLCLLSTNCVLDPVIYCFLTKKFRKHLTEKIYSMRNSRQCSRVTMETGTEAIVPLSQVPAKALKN

IC50 (read-out: IC50) [µM]	Structure (SMILES)	IC50 [µM]
10.6	C[C@@H]1CC[C@H]2C(C)(C)[C@H]3C[C@@]12CC[C@@]3(C)O [cedrol, reference compound]	–
42.2	CO[C@H]1[C@H](O)[C@@H](O)[C@H](O)[C@H](O)[C@H]1O [quebrachitol, 2-O-methyl-L-chiro-inositol]	–
–	COc1cc([C@H]2OC[C@H]3[C@@H]2CO[C@H]3c2ccc(OC)c(OC)c2)ccc1O [phylligenin]	13.1

— article PMC6259456, “Inhibitory Effects of Phylligenin and Quebrachitol Isolated from Mitrephora vulpina on Platelet Activating Factor Receptor Binding and Platelet Aggregation” (Molecules, 2010)
